# Experimental data taken from patent publication US20020026053A1, “Novel 3-(substituted) -2- indolinones compounds and use thereof as inhibitors of protein kinase activity” (priority 1997, published 2002).
# What was measured:
# [1] = biological target: T1, EGFR (Homo sapiens, UniProt P00533); assay: Biochemical EGFR Assay; parameters: concentration or dose not given beside the values
# T1 construct: endogenous in cells; host or cells: A431 cells (lysate, captured with SUMO1 anti-EGFR antibody)
# Method in brief: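 Readout is ABTS absorbance at 410 nm after anti-phosphotyrosine and HRP-antibody detection of EGFR autophosphorylation. The kinase was immunocaptured from A431 lysate, exposed 30 min to test compound diluted 1:10 in TBS, then phosphorylated for 5 min with ATP/MnCl2 before an EDTA stop.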
# [2] = system: PDGF-R; assay: PDGF-R Assay (cellular ELISA, U1242 cells); format: cell-based; parameters: concentration or dose not given beside the values
# Method in brief: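 Cellular ELISA for receptor autophosphorylation: after 2 hr test-compound treatment of serum-free U1242 cells at 37°C, ligand is added for 5–10 min, cells are lysed (HNTG) and receptor captured by specific antibody. Anti-phosphotyrosine plus secondary antibody with ABTS colour read at 410/630 nm, compared with compound-free control cells.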
# T1 sequence (P00533 25-1210): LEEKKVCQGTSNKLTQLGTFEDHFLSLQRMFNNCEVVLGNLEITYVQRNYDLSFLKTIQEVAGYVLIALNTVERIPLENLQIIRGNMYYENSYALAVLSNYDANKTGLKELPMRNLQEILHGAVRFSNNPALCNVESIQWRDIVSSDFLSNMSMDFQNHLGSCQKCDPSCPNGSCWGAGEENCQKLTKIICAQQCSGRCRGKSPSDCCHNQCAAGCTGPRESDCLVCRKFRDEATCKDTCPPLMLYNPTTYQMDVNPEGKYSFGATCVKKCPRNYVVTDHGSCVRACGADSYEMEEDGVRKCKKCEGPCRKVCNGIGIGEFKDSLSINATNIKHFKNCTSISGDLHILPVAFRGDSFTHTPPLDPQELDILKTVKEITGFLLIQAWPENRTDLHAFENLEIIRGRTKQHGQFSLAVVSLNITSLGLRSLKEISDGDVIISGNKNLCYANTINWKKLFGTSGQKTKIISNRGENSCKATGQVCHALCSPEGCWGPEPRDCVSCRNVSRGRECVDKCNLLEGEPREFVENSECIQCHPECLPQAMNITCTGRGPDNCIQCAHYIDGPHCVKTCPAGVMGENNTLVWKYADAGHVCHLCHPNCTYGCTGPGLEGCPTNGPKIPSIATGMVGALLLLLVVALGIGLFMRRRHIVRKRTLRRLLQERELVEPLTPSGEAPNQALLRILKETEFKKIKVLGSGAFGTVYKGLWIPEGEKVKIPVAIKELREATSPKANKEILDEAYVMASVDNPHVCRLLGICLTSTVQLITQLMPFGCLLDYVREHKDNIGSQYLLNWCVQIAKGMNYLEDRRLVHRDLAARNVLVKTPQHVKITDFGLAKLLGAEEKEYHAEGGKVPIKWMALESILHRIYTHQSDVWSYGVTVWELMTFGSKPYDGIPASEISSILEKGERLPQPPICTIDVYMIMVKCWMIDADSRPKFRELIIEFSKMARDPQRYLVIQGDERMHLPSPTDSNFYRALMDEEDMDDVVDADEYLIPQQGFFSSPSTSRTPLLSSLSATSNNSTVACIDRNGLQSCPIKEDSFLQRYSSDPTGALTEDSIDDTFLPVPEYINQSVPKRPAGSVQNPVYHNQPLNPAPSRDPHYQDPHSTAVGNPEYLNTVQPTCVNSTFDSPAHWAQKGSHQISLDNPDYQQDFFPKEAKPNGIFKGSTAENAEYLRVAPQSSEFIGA
Structure (SMILES),Biochem EGFR % Inhibition (P.167) [1],PDGF Kinase % Inhibition (P.119) [2]
N#Cc1ccccc1C=C1C(=O)Nc2ccc(I)cc21 [10735/B07],47.7%,0.5%
O=C1Nc2ccc(I)cc2C1=Cc1c(F)cccc1F [10735/B08],24.5%,9.8%
O=C1Nc2ccc(I)cc2C1=Cc1cccc2ccccc12 [10735/B09],39.8%,−0.5%
O=C1Nc2ccc(I)cc2C1=Cc1ccc(Cl)cc1Cl [10735/B10],30.1%,3.6%
O=C1Nc2ccc(I)cc2C1=Cc1ccc(-c2ccccc2)cc1 [10735/B11],52.4%,−8.8%
Cc1ccccc1C=C1C(=O)Nc2ccc(Br)c(C)c21 [10735/C02],1.6%,4.7%
Cc1c(Br)ccc2c1C(=Cc1ccc(F)c(F)c1)C(=O)N2 [10735/C03],8.0%,4.3%
Cc1c(Br)ccc2c1C(=Cc1cc(F)cc(F)c1)C(=O)N2 [10735/C04],5.8%,12.9%
Cc1c(Br)ccc2c1C(=Cc1cccc(C(F)(F)F)c1)C(=O)N2 [10735/C05],14.5%,20.5%
Cc1c(Br)ccc2c1C(=Cc1cc(C(F)(F)F)cc(C(F)(F)F)c1)C(=O)N2 [10735/C06],8.5%,25.0%
Cc1c(Br)ccc2c1C(=Cc1ccccc1C#N)C(=O)N2 [10735/C07],−4.9%,11.9%
Cc1c(Br)ccc2c1C(=Cc1c(F)cccc1F)C(=O)N2 [10735/C08],−11.3%,−2.6%
Cc1c(Br)ccc2c1C(=Cc1cccc3ccccc13)C(=O)N2 [10735/C09],−22.1%,−2.6%
Cc1c(Br)ccc2c1C(=Cc1ccc(Cl)cc1Cl)C(=O)N2 [10735/C10],−14.4%,4.0%
Cc1c(Br)ccc2c1C(=Cc1ccc(-c3ccccc3)cc1)C(=O)N2 [10735/C11],−6.4%,−2.9%
CNS(=O)(=O)c1ccc2c(c1)C(=Cc1ccccc1C)C(=O)N2 [10735/D02],20.3%,11.6%
CNS(=O)(=O)c1ccc2c(c1)C(=Cc1ccc(F)c(F)c1)C(=O)N2 [10735/D03],7.5%,12.9%
CNS(=O)(=O)c1ccc2c(c1)C(=Cc1cc(F)cc(F)c1)C(=O)N2 [10735/D04],3.8%,8.5%
CNS(=O)(=O)c1ccc2c(c1)C(=Cc1cccc(C(F)(F)F)c1)C(=O)N2 [10735/D05],23.0%,20.5%
CNS(=O)(=O)c1ccc2c(c1)C(=Cc1cc(C(F)(F)F)cc(C(F)(F)F)c1)C(=O)N2 [10735/D06],8.0%,14.7%
CNS(=O)(=O)c1ccc2c(c1)C(=Cc1ccccc1C#N)C(=O)N2 [10735/D07],−17.6%,3.6%
CNS(=O)(=O)c1ccc2c(c1)C(=Cc1c(F)cccc1F)C(=O)N2 [10735/D08],−1.5%,−5.7%
CNS(=O)(=O)c1ccc2c(c1)C(=Cc1cccc3ccccc13)C(=O)N2 [10735/D09],−0.3%,6.7%
CNS(=O)(=O)c1ccc2c(c1)C(=Cc1ccc(Cl)cc1Cl)C(=O)N2 [10735/D10],46.5%,3.3%
CNS(=O)(=O)c1ccc2c(c1)C(=Cc1ccc(-c3ccccc3)cc1)C(=O)N2 [10735/D11],−16.5%,0.5%
Cc1ccccc1C=C1C(=O)Nc2ccc(S(=O)(=O)Nc3ccc(C(F)(F)F)cc3)cc21 [10735/E02],16.7%,14.7%
O=C1Nc2ccc(S(=O)(=O)Nc3ccc(C(F)(F)F)cc3)cc2C1=Cc1ccc(F)c(F)c1 [10735/E03],18.9%,16.0%
O=C1Nc2ccc(S(=O)(=O)Nc3ccc(C(F)(F)F)cc3)cc2C1=Cc1cc(F)cc(F)c1 [10735/E04],14.3%,91.6%
O=C1Nc2ccc(S(=O)(=O)Nc3ccc(C(F)(F)F)cc3)cc2C1=Cc1cccc(C(F)(F)F)c1 [10735/E05],30.6%,47.8%
O=C1Nc2ccc(S(=O)(=O)Nc3ccc(C(F)(F)F)cc3)cc2C1=Cc1cc(C(F)(F)F)cc(C(F)(F)F)c1 [10735/E06],8.7%,32.3%
